According to patent US9643967B2, “Pyrrolo[3,2-c]pyridine derivatives as TLR inhibitors” (TAKEDA PHARMACEUTICAL COMPANY LIMITED, priority 2013, dated 2017):
Read-outs that look alike come from different tables or passages of the source.

Molecular target: T1, mTLR7 (Mus musculus, UniProt P58681)
T1 construct: Splenocytes isolated from male C57/BL6 mice; from tissue; host or cells: splenocytes from the spleen of male C57BL/6 mice
T1 sequence (P58681 27-1050): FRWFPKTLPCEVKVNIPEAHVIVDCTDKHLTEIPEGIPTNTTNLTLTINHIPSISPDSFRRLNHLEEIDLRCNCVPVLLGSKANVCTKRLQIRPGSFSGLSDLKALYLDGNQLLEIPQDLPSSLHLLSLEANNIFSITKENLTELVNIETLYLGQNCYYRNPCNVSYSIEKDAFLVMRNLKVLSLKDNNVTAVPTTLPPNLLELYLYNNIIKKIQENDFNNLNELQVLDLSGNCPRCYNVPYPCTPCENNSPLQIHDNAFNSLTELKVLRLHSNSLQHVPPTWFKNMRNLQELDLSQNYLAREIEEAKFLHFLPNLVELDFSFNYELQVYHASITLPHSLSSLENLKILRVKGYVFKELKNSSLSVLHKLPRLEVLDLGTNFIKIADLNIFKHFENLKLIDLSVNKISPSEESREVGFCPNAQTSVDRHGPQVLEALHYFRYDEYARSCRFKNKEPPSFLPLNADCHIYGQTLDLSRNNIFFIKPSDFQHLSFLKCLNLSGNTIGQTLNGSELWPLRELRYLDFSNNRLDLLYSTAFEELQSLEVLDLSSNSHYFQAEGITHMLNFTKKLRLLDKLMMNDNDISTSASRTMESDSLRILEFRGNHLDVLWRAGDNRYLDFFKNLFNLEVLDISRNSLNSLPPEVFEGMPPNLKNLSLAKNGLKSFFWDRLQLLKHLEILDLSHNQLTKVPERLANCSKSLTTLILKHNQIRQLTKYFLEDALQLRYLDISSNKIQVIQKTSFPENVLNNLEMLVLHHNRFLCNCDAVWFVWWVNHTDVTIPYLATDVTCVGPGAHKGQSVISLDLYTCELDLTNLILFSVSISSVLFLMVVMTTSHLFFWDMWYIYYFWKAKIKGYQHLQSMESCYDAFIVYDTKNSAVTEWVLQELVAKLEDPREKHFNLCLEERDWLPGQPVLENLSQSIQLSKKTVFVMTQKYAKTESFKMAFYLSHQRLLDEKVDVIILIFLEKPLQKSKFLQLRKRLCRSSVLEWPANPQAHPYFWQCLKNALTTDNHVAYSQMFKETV
Test: mTLR7 antagonism (IL-6 and TNF-α release assay) in mouse splenocytes, R0006/DOTAP stimulated
Type: cell-based
Source text: mTLR9 and mTLR7 Antagonism (Cytokine Release Assay) in Mouse Splenocytes
TLR7 ligand R0006 (IDT, 5′-rU*rU*rG*rU*rU*rG*rU*rU*rG*rU*rU*rG*rU*rU*rG*rU*rU*rG*rU*rU-3′ (SEQ ID NO:1)), Liposomal transfection reagent—DOTAP (Roche, Cat. No. 11202375001), TLR9 ligand CpG ODN2006 (Sequence: T*C*G*T*C*G*T*T*T*T*G*T*C*G*T*T*T*T*G*T*C*G*T*T; *=phosphorothioate (SEQ ID NO:2)) DMSO (Sigma, D2650), RPMI Powder (Sigma, R6504), Fetal Bovine Serum (Gibco, 10270), Dulbecco's Phosphate Buffered Saline (Sigma, D1408), 96 well plate (Flat bottom, Costar 3599), ELISA kit for IL-6 (EBioscience, 88-7064-77 and TNFa (EBioscience, 88-7346-88), MACS Buffer (AutoMACS Rinsing Solution (Miltenyl Biotec, 130-091-222)+0.05% BSA), RBC lysis buffer (0.85% NH4Cl), 40 μm cell strainer (BD Falcon, 352340) Method: A. Isolation of Mouse Splenocytes
Mouse spleen was isolated from C57BL6 mouse and stored in 1× chilled PBS buffer until further processed. Spleen was transferred to a sterile petriplate and chopped in to 5-6 pieces in presence of MACS buffer (100 μl) with the help of fresh surgical blade and crushed with flat plunger of a sterile syringe. A uniform suspension was prepared by passing cells through a 40 μm cell strainer. Cells were centrifuged at 450×g for 5 minutes at 4° C., supernatant was discarded and pellet dislodged gently, resuspended in 2 ml of pre-warmed (37° C.) RBC lysis buffer at room temperature with continuous gentle mixing with 1 ml pipette. Lysis buffer was neutralized with 12 ml of chilled MACS buffer and cells were passed through 40 μm cell strainer. Cell suspension was collected in 15 ml MACS buffer and centrifuged at 450×g for 5 minutes at 4° C. Pellet was resuspended in 15 ml MACS buffer and centrifuged at 400×g for 5 minutes. Cells were resuspended in 10 ml of RPMI complete medium and viability was estimated by Trypan blue method.
mTLR7 Antagonism (IL-6 and TNF-α Release Assay):
1 mg/ml stock of R0006 was prepared in sterile, endotoxin-free water. R0006 stock was diluted 10 fold with DOTAP and incubated for 30 minutes to form liposome complex (100 μg/ml of R0006). This complex was further diluted 10 fold with incomplete RPMI media (10 μg/ml of R0006) to achieve the final agonist concentration of 1 μg/ml. DOTAP alone was diluted 10 fold in incomplete RPMI media. NCEs were added in a concentration range of 30 μM to 1 nM in respective wells of assay plate, assay medium containing 0.3% DMSO were added to control wells. 0.2 million splenocytes were added to all the wells and incubated at 37° C. in 5% CO2 incubator for 30 minutes. 1 μg/ml of respective agonist was added to all the wells except those were assigned as negative controls and mixed thoroughly. DOTAP was added to negative control wells and incubated overnight at 37° C./5% CO2. The plate was centrifuged at 450×g for 5 minutes at room temperature and the supernatant was collected. ELISA was performed as per manufacturer's protocol. S/B Ratio, % Activity and % Inhibition was calculated using MS Excel. IC50 and inhibition curve was generated using Graph Pad Prism.

[1] = 1 μM, TNF-α release, mouse splenocytes, read-out: mTLR7 inhibitory activity (% at 1 μM), TNF-α
[2] = 1 μM, IL-6 release, mouse splenocytes, read-out: mTLR7 inhibitory activity (% at 1 μM), IL-6

Row | Structure (SMILES) | inhibition at 1 µM [1] [%] | inhibition at 1 µM [2] [%] | inhibition at 1 µM (read-out: mTLR7 inhibitory activity (% at 1 μM), IL-6) [%] | inhibition at 1 µM (read-out: mTLR7 inhibitory activity (% at 1 μM), TNF-α) [%]
1 | CC(C)N1CCN(c2ccc(-c3nccc4[nH]c(C(=O)N5CCOCC5)cc34)cc2)CC1 [Example A82, [4-[4-(4-isopropylpiperazin-1-yl)phenyl]-1H-pyrrolo[3,2-c]pyridin-2-yl]-morpholino-methanone] | – | – | 86 | 24
2 | Cc1cc2c(cc(CCN3CCOCC3)n2C)c(-c2ccc(N3CCN(C(C)C)CC3)c(F)c2)n1 [Example B14, 4-[2-[4-[3-fluoro-4-(4-isopropylpiperazin-1-yl)phenyl]-1,6-dimethyl-pyrrolo[3,2-c]pyridin-2-yl]ethyl]morpholine] | 100 | 100 | – | –
3 | Cc1cc2c(cc(CCN3CCOCC3)n2C)c(-c2ccc(N3CCN(C(C)C)CC3)cc2C)n1 [Example B15, 4-[2-[4-[4-(4-isopropylpiperazin-1-yl)-2-methyl-phenyl]-1,6-dimethyl-pyrrolo[3,2-c]pyridin-2-yl]ethyl]morpholine] | 83 | 88 | – | –
4 | Cc1cc2c(cc(CCN3CCOCC3)n2C)c(-c2ccc(N3CCN(C(C)C)CC3)c(C)c2)n1 [Example B16, 4-[2-[4-[4-(4-isopropylpiperazin-1-yl)-3-methyl-phenyl]-1,6-dimethyl-pyrrolo[3,2-c]pyridin-2-yl]ethyl]morpholine] | 100 | 100 | – | –
5 | Cc1cc2c(cc(CCN3CCOCC3)n2C)c(-c2ccc(N3CCN(C(C)C)CC3)cc2C(F)(F)F)n1 [Example B17, 4-[2-[4-[4-(4-isopropylpiperazin-1-yl)-2-(trifluoromethyl)phenyl]-1,6-dimethyl-pyrrolo[3,2-c]pyridin-2-yl]ethyl]morpholine] | 90 | 93 | – | –
6 | Cc1cc2c(cc(CCN3CCOCC3)n2C)c(-c2ccc(N3CCN(C(C)C)CC3)c(C(F)(F)F)c2)n1 [Example B18, 4-[2-[4-[4-(4-isopropylpiperazin-1-yl)-3-(trifluoromethyl)phenyl]-1,6-dimethyl-pyrrolo[3,2-c]pyridin-2-yl]ethyl]morpholine] | 100 | 100 | – | –
7 | Cc1cc2c(cc(CCN3CCOCC3)n2C)c(-c2ccc(N3CCN(C(C)C)CC3)cc2F)n1 [Example B19, 4-[2-[4-[2-fluoro-4-(4-isopropylpiperazin-1-yl)phenyl]-1,6-dimethyl-pyrrolo[3,2-c]pyridin-2-yl]ethyl]morpholine] | 100 | 100 | – | –
8 | COc1cc(N2CCN(C(C)C)CC2)ccc1-c1nc(C)cc2c1cc(CCN1CCOCC1)n2C [Example B20, 4-[2-[4-[4-(4-isopropylpiperazin-1-yl)-2-methoxy-phenyl]-1,6-dimethyl-pyrrolo[3,2-c]pyridin-2-yl]ethyl]morpholine] | 57 | 70 | – | –

Continued, in another order:

Row | inhibition at 1 µM [1] [%] | inhibition at 1 µM [2] [%] | Structure (SMILES) | inhibition at 1 µM (read-out: mTLR7 inhibitory activity (% at 1 μM), IL-6) [%] | inhibition at 1 µM (read-out: mTLR7 inhibitory activity (% at 1 μM), TNF-α) [%]
9 | 32 | – | CC(C)N1CCN(c2ccc(-c3nccc4[nH]c(CN5CCC[C@@H]5C(=O)O)cc34)cc2)CC1 [Example A74, (2R)-1-[[4-[4-(4-isopropylpiperazin-1-yl)phenyl]-1H-pyrrolo[3,2-c]pyridin-2-yl]methyl]pyrrolidine-2-carboxylic acid] | – | –
10 | 16 | 18 | CC(C)N1CCN(C2CCC(c3nccc4[nH]c(CN5CCOCC5)cc34)CC2)CC1 (centres unmarked) [Example A80, 4-[[4-[4-(4-isopropylpiperazin-1-yl)cyclohexyl]-1H-pyrrolo[3,2-c]pyridin-2-yl]methyl]morpholine] | – | –
11 | 24 | 25 | c1cc2[nH]c(CN3CCOCC3)cc2c(-c2ccc(N3CCN(C4COC4)CC3)cc2)n1 [Example A81, 4-[[4-[4-[4-(oxetan-3-yl)piperazin-1-yl]phenyl]-1H-pyrrolo[3,2-c]pyridin-2-yl]methyl]morpholine] | – | –
12 | 100 | 100 | CC(C)N1CCN(c2ccc(-c3nccc4[nH]c(CCN5CCOCC5)cc34)cc2)CC1 [Example B1, 4-[2-[4-[4-(4-isopropylpiperazin-1-yl)phenyl]-1H-pyrrolo[3,2-c]pyridin-2-yl]ethyl]morpholine] | – | –
13 | 100 | 100 | CN1CCN(c2ccc(-c3nccc4[nH]c(CCN5CCOCC5)cc34)cc2)CC1 [Example B2, 4-[2-[4-[4-(4-methylpiperazin-1-yl)phenyl]-1H-pyrrolo[3,2-c]pyridin-2-yl]ethyl]morpholine] | – | –
14 | 100 | – | Cc1cc2[nH]c(CCN3CCOCC3)cc2c(-c2ccc(N3CCN(C(C)C)CC3)cc2)n1 [Example B3, 4-[2-[4-[4-(4-isopropylpiperazin-1-yl)phenyl]-6-methyl-1H-pyrrolo[3,2-c]pyridin-2-yl]ethyl]morpholine] | – | –
15 | 100 | – | Cc1cc2[nH]c(CCN3CCOCC3)cc2c(-c2ccc(N3CCN(C)CC3)cc2)n1 [Example B4, 4-[2-[6-methyl-4-[4-(4-methylpiperazin-1-yl)phenyl]-1H-pyrrolo[3,2-c]pyridin-2-yl]ethyl]morpholine] | – | –
16 | 100 | – | Cc1cc2[nH]c(CCN3CCCCC3)cc2c(-c2ccc(N3CCN(C(C)C)CC3)cc2)n1 [Example B5, 4-[4-(4-isopropylpiperazin-1-yl)phenyl]-6-methyl-2-[2-(1-piperidyl)ethyl]-1H-pyrrolo[3,2-c]pyridine] | – | –
17 | 100 | – | Cc1nc(-c2ccc(N3CCN(C)CC3)cc2)c2cc(CCN3CCOCC3)[nH]c2c1C [Example B7, 4-[2-[6,7-dimethyl-4-[4-(4-methylpiperazin-1-yl)phenyl]-1H-pyrrolo[3,2-c]pyridin-2-yl]ethyl]morpholine] | – | –
18 | 88 | – | CCN1CCN(c2ccc(-c3nc(C)c(C)c4[nH]c(CCN5CCOCC5)cc34)cc2)CC1 [Example B8, 4-[2-[4-[4-(4-ethylpiperazin-1-yl)phenyl]-6,7-dimethyl-1H-pyrrolo[3,2-c]pyridin-2-yl]ethyl]morpholine] | – | –
19 | 100 | 100 | Cc1nc(-c2ccc(N3CCN(C(C)C)CC3)cc2)c2cc(CCN3CCCC3)[nH]c2c1C [Example B10, 4-[4-(4-isopropylpiperazin-1-yl)phenyl]-6,7-dimethyl-2-(2-pyrrolidin-1-ylethyl)-1H-pyrrolo[3,2-c]pyridine] | – | –
